Tests used:
[1] = Phase I single-dose pharmacokinetics, plasma tramadol, M1 and celecoxib; assay type: in vivo, human; settings: for AUC(0-inf): human, plasma, po, 100 mg
[2] = Phase I safety assessment; assay type: in vivo, human; settings: fasted, healthy subjects; for Number of subjects who reported AEs / Number of subjects with AEs considered to be treatment‐related / Subjects who reported AEs / Subjects with AEs considered to be treatment‐related: after single oral dose of each treatment; for Abdominal pain, number of events / Abdominal pain, number of subjects / Dizziness, number of events / Dizziness, number of subjects / Dysphonia, number of events / Dysphonia, number of subjects / Euphoric mood, number of events / Euphoric mood, number of subjects / Fatigue, number of events / Fatigue, number of subjects / Feeling abnormal, number of events / Feeling abnormal, number of subjects / Headache, number of events / Headache, number of subjects / Nasal congestion, number of events / Nasal congestion, number of subjects / Nausea, number of events / Nausea, number of subjects / Rash, number of events / Rash, number of subjects / Rhinitis, number of events / Rhinitis, number of subjects / Rhinorrhoea, number of events / Rhinorrhoea, number of subjects / Somnolence, number of events / Somnolence, number of subjects / Vessel puncture site pain, number of events / Vessel puncture site pain, number of subjects / Vessel puncture site reaction, number of events / Vessel puncture site reaction, number of subjects: single oral dose
[3] = cited from earlier work
[4] = tramadol administered alone in its conventional form; cited from earlier work
[5] = after use of IR tramadol; cited from earlier work
[6] = tested on: mu‐opioid receptor; settings: compared with tramadol itself; cited from earlier work
[7] = celecoxib alone vs. tramadol + celecoxib

| Molecule | AUC(0-inf) [1] [ng·h/mL] | Number of subjects who reported AEs [2] | Number of subjects with AEs considered to be treatment‐related [2] | Subjects who reported AEs [2] [%] | Subjects with AEs considered to be treatment‐related [2] [%] | Abdominal pain, number of events [2] | Abdominal pain, number of subjects [2] | Dizziness, number of events [2] | Dizziness, number of subjects [2] | Dysphonia, number of events [2] | Dysphonia, number of subjects [2] | Euphoric mood, number of events [2] | Euphoric mood, number of subjects [2] | Fatigue, number of events [2] | Fatigue, number of subjects [2] | Feeling abnormal, number of events [2] | Feeling abnormal, number of subjects [2] | Headache, number of events [2] | Headache, number of subjects [2] | Nasal congestion, number of events [2] | further results |
| --- | --- | --- | --- | --- | --- | --- | --- | --- | --- | --- | --- | --- | --- | --- | --- | --- | --- | --- | --- | --- | --- |
| Cc1ccc(-c2cc(C(F)(F)F)nn2-c2ccc(S(N)(=O)=O)cc2)cc1 [celecoxib] | 3200 | 12 | 8 | 34.3 | 22.9 | 0 | 0 | 1 / 1 | 1 / 1 | 1 / 1 | 1 / 1 | 0 | 0 | 0 | 0 | 0 | 0 | 1 / 1 | 1 / 1 | 1 / 1 | Ratio of geometric LS means (90% CI), celecoxib AUC τ, Treatment 3 vs. Treatment 4 [1, 7]: 110.39 (105.68–115.32) %; Ratio of geometric LS means (90% CI), celecoxib AUC ∞, Treatment 3 vs. Treatment 4 [1, 7]: 103.64 (99.37–108.09) %; Ratio of geometric LS means (90% CI), celecoxib C max, Treatment 3 vs. Treatment 4 [1, 7]: 163.92 (146.56–183.35) %; Nasal congestion, number of subjects [2]: 1 / 1; Nausea, number of events [2]: 0; Nausea, number of subjects [2]: 0; Rash, number of events [2]: 1 / 1; Rash, number of subjects [2]: 1 / 1; Rhinitis, number of events [2]: 1 / 1; Rhinitis, number of subjects [2]: 1 / 1; Rhinorrhoea, number of events [2]: 1 / 1; Rhinorrhoea, number of subjects [2]: 1 / 1; Somnolence, number of events [2]: 5 / 5; Somnolence, number of subjects [2]: 5 / 5; Vessel puncture site pain, number of events [2]: 2 / 2; Vessel puncture site pain, number of subjects [2]: 2 / 2; Vessel puncture site reaction, number of events [2]: 1 / 1; Vessel puncture site reaction, number of subjects [2]: 1 / 1; time to peak plasma concentrations ([3]; after administration of commercially available formulation): 2 to 3 h; elimination half‐life ([3]; commercially available formulation): 8 to 12 h |
| COc1cccc(C2(O)CCCCC2CN(C)C)c1 (stereo not drawn) [tramadol] | 3060 | 14 | 14 | 40.0 | 40.0 | 2 / 2 | 2 / 2 | 4 / 4 | 4 / 4 | 1 / 1 | 1 / 1 | 2 / 2 | 2 / 2 | 2 / 2 | 2 / 2 | 1 / 1 | 1 / 1 | 1 / 1 | 1 / 1 | 1 / 1 | elimination half‐life (T ½el) [4]: 5 to 6 h; subjects affected by the most common AEs (nausea and dizziness) [5]: > 10%; Nasal congestion, number of subjects [2]: 1 / 1; Nausea, number of events [2]: 6; Nausea, number of subjects [2]: 4; Rash, number of events [2]: 0; Rash, number of subjects [2]: 0; Rhinitis, number of events [2]: 0; Rhinitis, number of subjects [2]: 0; Rhinorrhoea, number of events [2]: 0; Rhinorrhoea, number of subjects [2]: 0; Somnolence, number of events [2]: 10 / 10; Somnolence, number of subjects [2]: 10 / 10; Vessel puncture site pain, number of events [2]: 0; Vessel puncture site pain, number of subjects [2]: 0; Vessel puncture site reaction, number of events [2]: 1 / 1; Vessel puncture site reaction, number of subjects [2]: 1 / 1 |
| (+)‐O‐desmethyl‐tramadol [M1] | – | – | – | – | – | – | – | – | – | – | – | – | – | – | – | – | – | – | – | – | affinity for the mu‐opioid receptor [6]: much greater affinity |
